Results as given in US20190134005A1 (BioMarin Pharmaceutical Inc., priority 2016, published 2019).

These compounds were tested against T1, human CGT (Homo sapiens, UniProt Q16880) (assay: Assay 1: CGT Enzymatic Assay (RapidFire/MS/MS, 0.01% Tween 80)). Conditions: Table 1, Compounds of Formula (I) and Formula (II); CGT enzymatic assay, C6-NBD-dihydro-galactosylceramide readout; read-out: IC50.
T1 sequence (Q16880 21-541): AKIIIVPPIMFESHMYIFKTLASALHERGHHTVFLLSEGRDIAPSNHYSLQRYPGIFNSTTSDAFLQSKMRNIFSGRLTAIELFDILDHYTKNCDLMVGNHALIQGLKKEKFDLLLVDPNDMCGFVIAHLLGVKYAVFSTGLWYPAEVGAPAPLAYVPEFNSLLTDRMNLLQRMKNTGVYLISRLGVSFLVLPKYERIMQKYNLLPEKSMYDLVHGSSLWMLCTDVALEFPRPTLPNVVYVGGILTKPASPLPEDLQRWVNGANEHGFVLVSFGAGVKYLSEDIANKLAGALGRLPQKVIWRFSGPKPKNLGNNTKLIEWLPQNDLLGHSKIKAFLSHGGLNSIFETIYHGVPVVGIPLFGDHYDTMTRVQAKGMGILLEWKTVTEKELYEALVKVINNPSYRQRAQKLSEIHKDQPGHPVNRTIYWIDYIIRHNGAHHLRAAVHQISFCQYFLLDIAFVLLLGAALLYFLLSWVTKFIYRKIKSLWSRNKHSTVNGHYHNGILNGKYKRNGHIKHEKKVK
Format: biochemical
`N#Cc1ccc(N2C(=O)N(c3ccc(Cl)cc3)C(O)(c3cccc(OC(F)(F)F)c3)C23COC3)cc1` (stereo not drawn) [Compound 276, 4-(7-(4-chlorophenyl)-8-hydroxy-6-oxo-8-(3-(trifluoromethoxy)phenyl)-2-oxa-5,7-diazaspiro[3.4]octan-5-yl)benzonitrile] showed an IC50 of under 1000 nM.
`Cc1ccc(N2C(=O)N(c3ccc(Cl)cc3)C(O)(c3cccc(C#N)c3)C23COC3)cc1` (stereo not drawn) [Compound 283, 3-(7-(4-chlorophenyl)-8-hydroxy-6-oxo-5-(p-tolyl)-2-oxa-5,7-diazaspiro[3.4]octan-8-yl)benzonitrile] gave an IC50 of under 1000 nM.

Same assay, conditions: Table 1, Compounds of Formula (I) and Formula (II); CGT enzymatic assay; read-out: IC50
For `O=C1N(c2ccc(Cl)cc2)C(C2COC2)C(O)(c2cccc(OC(F)(F)F)c2)N1c1ccc(Cl)cc1` (stereo not drawn) [Compound 237, 1,3-bis(4-chlorophenyl)-4-hydroxy-5-(oxetan-3-yl)-4-(3-(trifluoromethoxy)phenyl)imidazolidin-2-one], the IC50 was under 1000 nM.
With `CC(C)[C@@H]1N(c2ccc(C(F)(F)F)cc2)C(=O)N(c2ccc(C(F)(F)F)cc2)C1(O)c1cccc(OC(F)(F)F)c1` (stereo partly drawn) [Example 196-1, (5S)-4-hydroxy-5-isopropyl-4-(3-(trifluoromethoxy)phenyl)-1,3-bis(4-(trifluoromethyl)phenyl)imidazolidin-2-one] the IC50 was under 1000 nM.
`N#Cc1cccc(C2(O)N(c3ccc(Cl)cc3)C(=O)N(c3ccc(Cl)cc3)C23COC3)c1` (stereo not drawn) [Compound 151, 3-(5,7-bis(4-chlorophenyl)-8-hydroxy-6-oxo-2-oxa-5,7-diazaspiro[3.4]octan-8-yl)benzonitrile] gave an IC50 of under 1000 nM.
`O=C1N(c2ccc(Cl)cc2)[C@H]([C@H]2CCCO2)C(O)(c2cccc(Cl)c2)N1c1ccc(Cl)cc1` (single isomer, unassigned) [Compound 117-2] was tested, and the IC50 was 1000 to 10000 nM.
`CCC1(O)CN(c2ccc(Br)cc2)C(=O)N1c1ccc(Br)cc1` (stereo not drawn) [Example 4, 1,3-bis(4-bromophenyl)-4-ethyl-4-hydroxyimidazolidin-2-one] showed an IC50 of 10000 to 50000 nM.
Work on `OC1(c2ccccc2)CN(c2ccc(Br)cc2)C(=S)N1c1ccc(Br)cc1` (stereo not drawn) [Example 26, 1,3-bis(4-bromophenyl)-4-hydroxy-4-phenylimidazolidine-2-thione] yielded an IC50 of 50000 to 100000 nM.
Compound `C[C@H]1N(c2ccccc2)C(=O)N(c2ccccc2)C1(O)c1cccc(OC(F)(F)F)c1` (stereo partly drawn) [Example 230-2, (5R)-4-hydroxy-5-methyl-1,3-diphenyl-4-(3-(trifluoromethoxy)phenyl)imidazolidin-2-one] has an IC50 of 1000 to 10000 nM.
`CCCCC1(O)CN(c2ccc(Br)cc2)C(=O)N1c1ccc(Br)cc1` (stereo not drawn) [Example 6, 1,3-bis(4-bromophenyl)-4-butyl-4-hydroxyimidazolidin-2-one] gave an IC50 of over 50000 nM.
With `CCCC[C@@H]1N(c2ccc(Cl)cc2)C(=O)N(c2ccc(Cl)cc2)C1(O)c1cccc(C#N)c1` (stereo partly drawn) [Compound 116-1, 3-((5S)-5-butyl-1,3-bis(4-chlorophenyl)-4-hydroxy-2-oxoimidazolidin-4-yl)benzonitrile] the IC50 was under 1000 nM.
With `O=C1N(c2ccc(Br)cc2)CC(O)(c2nc3ccccc3s2)N1c1ccc(Br)cc1` (stereo not drawn) [Example 10, 4-(benzo[d]thiazol-2-yl)-1,3-bis(4-bromophenyl)-4-hydroxyimidazolidin-2-one] the IC50 was over 50000 nM.
`C[C@@]1(c2cccc(C(F)(F)F)c2)C(O)N(c2ccc(Cl)cc2)C(=O)N1c1ccc(Cl)cc1` (stereo partly drawn) [Example 190-2, (4R)-1,3-bis(4-chlorophenyl)-5-hydroxy-4-methyl-4-(3-(trifluoromethyl)phenyl)imidazolidin-2-one] gave an IC50 of under 1000 nM.
Compound `CC[C@@]1(C)N(c2ccc(Cl)cc2)C(=O)N(c2ccc(Cl)cc2)C1(O)c1cccc(C#N)c1` (single isomer, unassigned) [Example 185-1] has an IC50 of 10000 to 50000 nM.
`CC(C)c1c(-c2cccc(C#N)c2)n(-c2ccc(Br)cc2)c(=O)n1-c1ccc(Br)cc1` [Example 46, 3-(1,3-bis(4-bromophenyl)-5-isopropyl-2-oxo-2,3-dihydro-1H-imidazol-4-yl)benzonitrile] gave an IC50 of under 1000 nM.
Work on `C[C@]1(c2cccc(C(F)(F)F)c2)C(O)N(c2ccc(Br)cc2)C(=O)N1c1ccc(Br)cc1` (stereo partly drawn) [Example 219-1, (4S)-1,3-bis(4-bromophenyl)-5-hydroxy-4-methyl-4-(3-(trifluoromethyl)phenyl)imidazolidin-2-one] yielded an IC50 of 10000 to 50000 nM.
`C[C@@H]1N(c2ccc(Cl)cc2)C(=O)N(c2ccc(Cl)cc2)C1(O)c1cccc(C(C)(C)O)c1` (stereo partly drawn) [Compound 140-1, (5S)-1,3-bis(4-chlorophenyl)-4-hydroxy-4-(3-(2-hydroxypropan-2-yl)phenyl)-5-methylimidazolidin-2-one] gave an IC50 of over 50000 nM.
Work on `CCC1N(c2ccc(Cl)cc2)C(=O)N(c2ccc(Cl)cc2)C1(O)c1cccc(C#N)c1` (stereo not drawn) [Compound 106, 3-(1,3-bis(4-chlorophenyl)-5-ethyl-4-hydroxy-2-oxoimidazolidin-4-yl)benzonitrile] yielded an IC50 of under 1000 nM.
For `O=C1N(c2cccc(Cl)c2)C(=O)C(O)(c2ccccc2)N1c1cccc(Cl)c1` (stereo not drawn) [Example 162, 1,3-bis(3-chlorophenyl)-5-hydroxy-5-phenylimidazolidine-2,4-dione], the IC50 was 10000 to 50000 nM.
`C[C@@]1(C(F)(F)F)N(c2ccc(Cl)cc2)C(=O)N(c2ccc(Cl)cc2)C1(O)c1cccc(OC(F)(F)F)c1` (single isomer, unassigned) [Example 159-2] showed an IC50 of under 1000 nM.
Work on `CC[C@H]1N(c2ccc(Cl)cc2)C(=O)N(c2ccc(Cl)cc2)C1(O)c1cccc(C)c1` (stereo partly drawn) [Compound 75-2, (5R)-1,3-bis(4-chlorophenyl)-5-ethyl-4-hydroxy-4-(m-tolyl)imidazolidin-2-one] yielded an IC50 of under 1000 nM.
`O=C1N(c2ccc(Cl)cc2F)C(=O)C(O)(c2ccccc2)N1c1ccc(Cl)cc1F` (stereo not drawn) [Compound 155, 1,3-bis(4-chloro-2-fluorophenyl)-5-hydroxy-5-phenylimidazolidine-2,4-dione] was tested, and the IC50 was over 50000 nM.
Work on `CC(C)c1c(-c2cccc(OC(F)(F)F)c2)n(-c2ccc(Cl)cc2)c(=O)n1-c1ccc(Cl)cc1` [Example 50] yielded an IC50 of under 1000 nM.
Work on `O=C1N(c2ccc(Cl)cc2)C2(COC2)C(O)(c2cccc(OC(F)(F)F)c2)N1c1ccc(Cl)cc1` (stereo not drawn) [Compound 150, 5,7-bis(4-chlorophenyl)-8-hydroxy-8-(3-(trifluoromethoxy)phenyl)-2-oxa-5,7-diazaspiro[3.4]octan-6-one] yielded an IC50 of under 1000 nM.
Work on `O=C1N(c2ccc(Cl)cc2)[C@H](C2CC2)C(O)(c2cccc(OC(F)F)c2)N1c1ccc(Cl)cc1` (stereo partly drawn) [Compound 233-2, (5R)-1,3-bis(4-chlorophenyl)-5-cyclopropyl-4-(3-(difluoromethoxy)phenyl)-4-hydroxyimidazolidin-2-one] yielded an IC50 of under 1000 nM.
`C[C@H]1N(c2ccc(Cl)cc2)C(=O)N(c2ccc(Cl)cc2)C1(O)c1cccc(OC(F)(F)F)c1` (stereo partly drawn) [Compound 129-2, (5R)-1,3-bis(4-chlorophenyl)-4-hydroxy-5-methyl-4-(3-(trifluoromethoxy)phenyl)imidazolidin-2-one] was tested, and the IC50 was under 1000 nM.
With `CCCc1c(-c2cccc(Cl)c2)n(-c2ccc(Br)cc2)c(=O)n1-c1ccc(Br)cc1` [Compound 250, 1,3-bis(4-bromophenyl)-4-(3-chlorophenyl)-5-propyl-1,3-dihydro-2H-imidazol-2-one] the IC50 was under 1000 nM.
`O=C1N(c2ccc(Cl)cc2)C(C2CCC2)C(O)(c2cccc(OC(F)(F)F)c2)N1c1ccc(Cl)cc1` (stereo not drawn) [Example 191, 1,3-bis(4-chlorophenyl)-5-cyclobutyl-4-hydroxy-4-(3-(trifluoromethoxy)phenyl)imidazolidin-2-one] showed an IC50 of under 1000 nM.
Compound `O=C1N(c2ccc(Br)cc2)C(=O)C(O)(c2ccc[nH]2)N1c1ccc(Br)cc1` (stereo not drawn) [Example 211, 1,3-bis(4-bromophenyl)-5-hydroxy-5-(1H-pyrrol-2-yl)imidazolidine-2,4-dione] has an IC50 of 10000 to 50000 nM.
Work on `Cc1cccc([C@]2(C)C(O)N(c3ccc(Cl)cc3)C(=O)N2c2ccc(Cl)cc2)c1` (single isomer, unassigned) [Example 222-2] yielded an IC50 of under 1000 nM.
`CC1(C)N(c2ccc(Cl)cc2)C(=O)N(c2ccc(Cl)cc2)C1(O)c1cc(C#N)cc(C#N)c1` (stereo not drawn) [Example 188, 5-(1,3-bis(4-chlorophenyl)-4-hydroxy-5,5-dimethyl-2-oxoimidazolidin-4-yl)isophthalonitrile] showed an IC50 of under 1000 nM.
`CCc1c(-c2cccc(C(F)(F)F)c2)n(-c2ccc(Cl)cc2)c(=O)n1-c1ccc(Cl)cc1` [Example 40, 1,3-bis(4-chlorophenyl)-4-ethyl-5-(3-(trifluoromethyl)phenyl)-1,3-dihydro-2H-imidazol-2-one] was tested, and the IC50 was under 1000 nM.
In the case of `CCc1cccc(C2(O)[C@@H](C)N(c3ccc(Br)cc3)C(=O)N2c2ccc(Br)cc2)c1` (stereo partly drawn) [Compound 68-2, (5R)-1,3-bis(4-bromophenyl)-4-(3-ethylphenyl)-4-hydroxy-5-methylimidazolidin-2-one], the IC50 is reported as under 1000 nM.
`Cc1cccc(-c2c(C)n(-c3ccc(Br)cc3)c(=O)n2-c2ccc(Br)cc2)c1` [Compound 263, 1,3-bis(4-bromophenyl)-4-methyl-5-(m-tolyl)-1,3-dihydro-2H-imidazol-2-one] gave an IC50 of 1000 to 10000 nM.
`CC1N(c2ccccc2)C(=O)N(c2ccccc2)C1(O)c1cccc(OC(F)(F)F)c1` (stereo not drawn) [Example 230, 4-hydroxy-5-methyl-1,3-diphenyl-4-(3-(trifluoromethoxy)phenyl)imidazolidin-2-one] gave an IC50 of 1000 to 10000 nM.
In the case of `C[C@H]1N(c2ccc(Cl)cc2)C(=O)N(c2ccc(Cl)cc2)C1(O)c1cccc(C(F)(F)F)c1` (stereo partly drawn) [Compound 77-2, (5R)-1,3-bis(4-chlorophenyl)-4-hydroxy-5-methyl-4-(3-(trifluoromethyl)phenyl)imidazolidin-2-one], the IC50 is reported as under 1000 nM.
